Species on record: Rattus norvegicus
Assay: DrugMatrix - Regimen: Daily Repeat
Assay type: toxicity, organism-based, Sprague-Dawley
Design: regimen Daily Repeat, gender Male, age 6-8 weeks
Details: in vivo, po, route oral GAVAGE, vehicle .5 % CMC; for ABSOLUTE BASOPHIL / ABSOLUTE EOSINOPHIL / ABSOLUTE LYMPHOCYTE / ABSOLUTE MONOCYTE / ABSOLUTE SEGMENTED NEUTROPHIL / BASOPHIL / EOSINOPHIL / ERYTHROCYTE COUNT / HEMATOCRIT / HEMOGLOBIN / LEUKOCYTE COUNT / LYMPHOCYTE / MEAN CORPUSCULAR HEMOGLOBIN / MEAN CORPUSCULAR HEMOGLOBIN CONCENTRATION / MEAN CORPUSCULAR VOLUME / MONOCYTE / NEUTROPHIL / NUCLEATED RED BLOOD CELLS / PLATELET COUNT: tissue Blood; for ALANINE AMINOTRANSFERASE / ALBUMIN / ALKALINE PHOSPHATASE / ASPARTATE AMINOTRANSFERASE / BLOOD UREA NITROGEN / CARBON DIOXIDE / CHLORIDE / CHOLESTEROL / CREATINE PHOSPHOKINASE / CREATININE / GLUCOSE / LACTATE DEHYDROGENASE / LIPASE / PHOSPHORUS / POTASSIUM / SODIUM / TOTAL BILIRUBIN / TOTAL PROTEIN / URIC ACID: tissue Plasma
[1] = 0 mg/kg, 72 h, dose level Control, time 3 day
[2] = 0 mg/kg, 120 h, dose level Control, time 5 day
[3] = 25 mg/kg, 72 h, dose level Low, time 3 day
[4] = 25 mg/kg, 120 h, dose level Low, time 5 day

With `CCCCC1C(=O)N(c2ccccc2)N(c2ccccc2)C1=O` [PHENYLBUTAZONE] the “ABSOLUTE BASOPHIL” value [1] was 0 CELLS/uL, the “ABSOLUTE EOSINOPHIL” value [1] was 35.67 CELLS/uL and the “ABSOLUTE LYMPHOCYTE” value [1] was 9125.17 CELLS/uL. For the same compound, the “ABSOLUTE MONOCYTE” value [1] was 50.17 CELLS/uL, the “ABSOLUTE SEGMENTED NEUTROPHIL” value [1] was 722.33 CELLS/uL and the BASOPHIL [1] was 0%. The EOSINOPHIL [1] was 0.33%, the “ERYTHROCYTE COUNT” value [1] was 5.35 x10E6/uL and the HEMATOCRIT [1] was 33.58%. The HEMOGLOBIN [1] was 13.35 G/DL, the “LEUKOCYTE COUNT” value [1] was 9.93 x10E3/uL and the LYMPHOCYTE [1] was 91.67%. The “MEAN CORPUSCULAR HEMOGLOBIN” value [1] was 25 pg, the “MEAN CORPUSCULAR HEMOGLOBIN CONCENTRATION” value [1] was 39.8 G/DL and the “MEAN CORPUSCULAR VOLUME” value [1] was 62.77 fL. For the same compound, the MONOCYTE [1] was 0.67%, the NEUTROPHIL [1] was 7.33% and the “NUCLEATED RED BLOOD CELLS” value [1] was 0 /100WBC. The “PLATELET COUNT” value [1] was 866.17 x10E3/uL, the “ALANINE AMINOTRANSFERASE” value [1] was 57.17 u/L and the ALBUMIN [1] was 4.22 G/DL. For the same compound, the “ALKALINE PHOSPHATASE” value [1] was 391 u/L, the “ASPARTATE AMINOTRANSFERASE” value [1] was 95.17 u/L and the “BLOOD UREA NITROGEN” value [1] was 13.67 mg/dL. For the same compound, the “CARBON DIOXIDE” value [1] was 30 mmol/L, the CHLORIDE [1] was 102.5 MEQ/L and the CHOLESTEROL [1] was 72 mg/dL. For the same compound, the “CREATINE PHOSPHOKINASE” value [1] was 485.67 u/L, the CREATININE [1] was 0.27 mg/dL and the GLUCOSE [1] was 152 mg/dL. The “LACTATE DEHYDROGENASE” value [1] was 372.67 u/L, the LIPASE [1] was 9.83 u/L and the PHOSPHORUS [1] was 12.47 mg/dL. For the same compound, the POTASSIUM [1] was 6.81 MEQ/L, the SODIUM [1] was 144.1 MEQ/L and the “TOTAL BILIRUBIN” value [1] was 0.23 mg/dL. For the same compound, the “TOTAL PROTEIN” value [1] was 5.93 G/DL, the “URIC ACID” value [1] was 1.9 mg/dL and the “ABSOLUTE BASOPHIL” value [2] was 0 CELLS/uL. For the same compound, the “ABSOLUTE EOSINOPHIL” value [2] was 67.33 CELLS/uL, the “ABSOLUTE LYMPHOCYTE” value [2] was 11419.17 CELLS/uL and the “ABSOLUTE MONOCYTE” value [2] was 203.17 CELLS/uL. For the same compound, the “ABSOLUTE SEGMENTED NEUTROPHIL” value [2] was 1327 CELLS/uL, the BASOPHIL [2] was 0% and the EOSINOPHIL [2] was 0.5%. The “ERYTHROCYTE COUNT” value [2] was 5.65 x10E6/uL, the HEMATOCRIT [2] was 35.3% and the HEMOGLOBIN [2] was 13.98 G/DL. For the same compound, the “LEUKOCYTE COUNT” value [2] was 13.02 x10E3/uL, the LYMPHOCYTE [2] was 88% and the “MEAN CORPUSCULAR HEMOGLOBIN” value [2] was 24.78 pg. For the same compound, the “MEAN CORPUSCULAR HEMOGLOBIN CONCENTRATION” value [2] was 39.63 G/DL, the “MEAN CORPUSCULAR VOLUME” value [2] was 62.58 fL and the MONOCYTE [2] was 1.33%. For the same compound, the NEUTROPHIL [2] was 10.17%, the “NUCLEATED RED BLOOD CELLS” value [2] was 0 /100WBC and the “PLATELET COUNT” value [2] was 1213.83 x10E3/uL. For the same compound, the “ALANINE AMINOTRANSFERASE” value [2] was 49.67 u/L, the ALBUMIN [2] was 4.28 G/DL and the “ALKALINE PHOSPHATASE” value [2] was 362.33 u/L. The “ASPARTATE AMINOTRANSFERASE” value [2] was 99 u/L, the “BLOOD UREA NITROGEN” value [2] was 20.67 mg/dL and the “CARBON DIOXIDE” value [2] was 26.33 mmol/L. For the same compound, the CHLORIDE [2] was 102 MEQ/L, the CHOLESTEROL [2] was 63.83 mg/dL and the “CREATINE PHOSPHOKINASE” value [2] was 481.83 u/L. The CREATININE [2] was 0.21 mg/dL, the GLUCOSE [2] was 158 mg/dL and the “LACTATE DEHYDROGENASE” value [2] was 656.33 u/L. For the same compound, the LIPASE [2] was 10.67 u/L, the PHOSPHORUS [2] was 12.27 mg/dL and the POTASSIUM [2] was 6.17 MEQ/L. For the same compound, the SODIUM [2] was 143.35 MEQ/L, the “TOTAL BILIRUBIN” value [2] was 0.17 mg/dL and the “TOTAL PROTEIN” value [2] was 6.13 G/DL. The “URIC ACID” value [2] was 1.48 mg/dL, the “ABSOLUTE BASOPHIL” value [3] was 0 CELLS/uL and the “ABSOLUTE EOSINOPHIL” value [3] was 0 CELLS/uL. The “ABSOLUTE LYMPHOCYTE” value [3] was 8397.33 CELLS/uL, the “ABSOLUTE MONOCYTE” value [3] was 56.33 CELLS/uL and the “ABSOLUTE SEGMENTED NEUTROPHIL” value [3] was 846.33 CELLS/uL. For the same compound, the BASOPHIL [3] was 0%, the EOSINOPHIL [3] was 0% and the “ERYTHROCYTE COUNT” value [3] was 5.18 x10E6/uL. For the same compound, the HEMATOCRIT [3] was 33.27%, the HEMOGLOBIN [3] was 13.33 G/DL and the “LEUKOCYTE COUNT” value [3] was 9.3 x10E3/uL. The LYMPHOCYTE [3] was 90.67%, the “MEAN CORPUSCULAR HEMOGLOBIN” value [3] was 25.83 pg and the “MEAN CORPUSCULAR HEMOGLOBIN CONCENTRATION” value [3] was 40.17 G/DL. For the same compound, the “MEAN CORPUSCULAR VOLUME” value [3] was 64.37 fL, the MONOCYTE [3] was 0.67% and the NEUTROPHIL [3] was 8.67%. The “NUCLEATED RED BLOOD CELLS” value [3] was 0 /100WBC, the “PLATELET COUNT” value [3] was 982.67 x10E3/uL and the “ALANINE AMINOTRANSFERASE” value [3] was 57 u/L. The ALBUMIN [3] was 4.4 G/DL, the “ALKALINE PHOSPHATASE” value [3] was 377 u/L and the “ASPARTATE AMINOTRANSFERASE” value [3] was 101.33 u/L. The “BLOOD UREA NITROGEN” value [3] was 16.33 mg/dL, the “CARBON DIOXIDE” value [3] was 29.33 mmol/L and the CHLORIDE [3] was 103 MEQ/L. For the same compound, the CHOLESTEROL [3] was 73 mg/dL, the “CREATINE PHOSPHOKINASE” value [3] was 583.33 u/L and the CREATININE [3] was 0.17 mg/dL. For the same compound, the GLUCOSE [3] was 154.67 mg/dL, the “LACTATE DEHYDROGENASE” value [3] was 337.67 u/L and the LIPASE [3] was 8.67 u/L. For the same compound, the PHOSPHORUS [3] was 12.6 mg/dL, the POTASSIUM [3] was 6.38 MEQ/L and the SODIUM [3] was 143.37 MEQ/L. The “TOTAL BILIRUBIN” value [3] was 0.13 mg/dL, the “TOTAL PROTEIN” value [3] was 5.87 G/DL and the “URIC ACID” value [3] was 1.67 mg/dL. For the same compound, the “ABSOLUTE BASOPHIL” value [4] was 0 CELLS/uL, the “ABSOLUTE EOSINOPHIL” value [4] was 72 CELLS/uL and the “ABSOLUTE LYMPHOCYTE” value [4] was 8896 CELLS/uL. The “ABSOLUTE MONOCYTE” value [4] was 33 CELLS/uL, the “ABSOLUTE SEGMENTED NEUTROPHIL” value [4] was 999 CELLS/uL and the BASOPHIL [4] was 0%. For the same compound, the EOSINOPHIL [4] was 0.67%, the “ERYTHROCYTE COUNT” value [4] was 5 x10E6/uL and the HEMATOCRIT [4] was 31.63%. The HEMOGLOBIN [4] was 12.6 G/DL, the “LEUKOCYTE COUNT” value [4] was 10 x10E3/uL and the LYMPHOCYTE [4] was 89%. For the same compound, the “MEAN CORPUSCULAR HEMOGLOBIN” value [4] was 25.27 pg, the “MEAN CORPUSCULAR HEMOGLOBIN CONCENTRATION” value [4] was 39.87 G/DL and the “MEAN CORPUSCULAR VOLUME” value [4] was 63.4 fL. For the same compound, the MONOCYTE [4] was 0.33%, the NEUTROPHIL [4] was 10% and the “NUCLEATED RED BLOOD CELLS” value [4] was 0 /100WBC. The “PLATELET COUNT” value [4] was 635.33 x10E3/uL, the “ALANINE AMINOTRANSFERASE” value [4] was 52 u/L and the ALBUMIN [4] was 4.53 G/DL. For the same compound, the “ALKALINE PHOSPHATASE” value [4] was 362 u/L, the “ASPARTATE AMINOTRANSFERASE” value [4] was 82.33 u/L and the “BLOOD UREA NITROGEN” value [4] was 20 mg/dL. For the same compound, the “CARBON DIOXIDE” value [4] was 25 mmol/L, the CHLORIDE [4] was 105.67 MEQ/L and the CHOLESTEROL [4] was 71.33 mg/dL. For the same compound, the “CREATINE PHOSPHOKINASE” value [4] was 253 u/L, the CREATININE [4] was 0.26 mg/dL and the GLUCOSE [4] was 148 mg/dL. For the same compound, the “LACTATE DEHYDROGENASE” value [4] was 409.67 u/L, the LIPASE [4] was 11 u/L and the PHOSPHORUS [4] was 11.9 mg/dL. The POTASSIUM [4] was 6.52 MEQ/L, the SODIUM [4] was 146.6 MEQ/L and the “TOTAL BILIRUBIN” value [4] was 0.2 mg/dL. The “TOTAL PROTEIN” value [4] was 6.2 G/DL and the “URIC ACID” value [4] was 1.47 mg/dL.

Source: ChEMBL document CHEMBL3885881, “DrugMatrix”
